The target in test [1] is T1, ArgT (Corynebacterium glutamicum, UniProt Q8NQU2).
T1 construct: His10-ArgT, variant with cleavable His-tag and lacking the signal peptide
Kind of test: isothermal titration calorimetry, purified His10-ArgT (one measurement). In kind it is binding.

The target in test [2] is T1, ArgT. Kind of test: isothermal titration calorimetry, purified His10-ArgT. In kind it is binding. In general terms: Isothermal titration calorimetry measures the heat released or taken up as one component is titrated into another.

Each structure is given as a SMILES string.

T1 sequence (Q8NQU2 27-304): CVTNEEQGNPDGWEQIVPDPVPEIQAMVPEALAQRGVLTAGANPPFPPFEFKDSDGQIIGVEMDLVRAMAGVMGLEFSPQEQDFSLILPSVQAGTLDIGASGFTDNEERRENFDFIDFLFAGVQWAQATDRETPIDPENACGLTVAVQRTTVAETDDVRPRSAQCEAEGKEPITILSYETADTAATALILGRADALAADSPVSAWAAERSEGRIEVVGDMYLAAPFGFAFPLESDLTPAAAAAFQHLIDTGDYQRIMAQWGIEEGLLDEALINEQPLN

The term Kd denotes the equilibrium constant for the complex coming apart. Low values mean tighter binding, high ones weaker binding. The compound `NC(=O)NCCC[C@H](N)C(=O)O` [L-citrulline] came in with a Kd in test [1] of 432 nM. In other words, the sub-micromolar range.
The compound `N=C(N)NCCC[C@H](N)C(=O)O` [L-arginine] yielded an equilibrium dissociation constant (Kd) in test [2] of 29.5 ± 4.8 nM.
